Data taken from US11129829B2, “Methods for modulating splicing” (Skyhawk Therapeutics, Inc., priority 2019, dated 2021).

Tests used:
Format in all cases: cell-based
[1] = tested on: FoxM1 A mRNA; test: Splice EC50: FoxM1 A mRNA increase (exon excluded); details: read-out: Splice EC50 (nM)^B
[2] = tested on: FoxM1 BC mRNA; test: Splice IC50: FoxM1 BC mRNA decrease (exon included); details: read-out: Splice IC50 (nM)^C
[3] = tested on: A-673; test: A-673 cell viability
[4] = Homo sapiens, A673, Cell viability

| Compound | EC50 [1] [nM] | IC50 [2] [nM] | IC50 [3, 4] [nM] | IC50 ([3]; Cell viability) [nM] |
| --- | --- | --- | --- | --- |
| Oc1cc(-c2cn[nH]c2)ccc1-c1ccc(O[C@@H]2C[C@H]3COC[C@@H](C2)N3)nn1 [compound 159, 2-(6-(((1R,5S,7r)-3-oxa-9-azabicyclo[3.3.1]nonan-7-yl)oxy)pyridazin-3-yl)-5-(1H-pyrazol-4-yl)phenol] | 251 to 500 | 501 to 1000 | 501 to 1000 | – |
| Cc1cn(-c2ccc(-c3ccc(N(C)[C@H]4C[C@]5(C)CC[C@](C)(C4)N5)nn3)c(O)c2)cn1 [compound 177, 2-(6-(((1R,3S,5S)-1,5-dimethyl-8-azabicyclo[3.2.1]octan-3-yl)(methyl)amino)pyridazin-3-yl)-5-(4-methyl-1H-imidazol-1-yl)phenol] | < 10 | < 10 | 10 to 100 | – |
| Oc1cc(-c2c[nH]nn2)ccc1-c1ccc(O[C@@H]2C[C@H]3CC[C@@H](C2)N3)nn1 [compound 253, 2-(6-(((1R,3S,5S)-8-azabicyclo[3.2.1]octan-3-yl)oxy)pyridazin-3-yl)-5-(1H-1,2,3-triazol-4-yl)phenol] | 251 to 500 | 251 to 500 | 501 to 1000 | – |
| CN(c1ccc(-c2ccc(-n3nccn3)cc2O)nn1)[C@@H]1C[C@H]2CCC[C@@H](C1)N2 [compound 275, 2-(6-(((1R,3S,5S)-9-azabicyclo[3.3.1]nonan-3-yl)(methyl)amino)pyridazin-3-yl)-5-(2H-1,2,3-triazol-2-yl)phenol] | < 10 | < 10 | – | < 10 |
| Oc1cc(-c2cn[nH]c2)ccc1-c1ccc(O[C@@H]2C[C@H]3CCC[C@@H](C2)N3)nn1 [compound 277, 2-(6-(((1R,3R,5S)-9-azabicyclo[3.3.1]nonan-3-yl)oxy)pyridazin-3-yl)-5-(1H-pyrazol-4-yl)phenol] | > 1000 | > 1000 | – | > 1000 |
| CN(c1ccc(-c2ccc(-n3ccnn3)cc2O)nn1)[C@@H]1C[C@H]2CCC[C@@H](C1)N2 [compound 279, 2-(6-(((1R,3S,5S)-9-azabicyclo[3.3.1]nonan-3-yl)(methyl)amino)pyridazin-3-yl)-5-(1H-1,2,3-triazol-1-yl)phenol] | < 10 | < 10 | – | 10 to 100 |
| [2H]C([2H])([2H])n1ncc(-c2ccc(-c3ccc(N(C)[C@@H]4C[C@H]5CCC[C@@H](C4)N5)nn3)c(O)c2)cc1=O [compound 281] | < 10 | < 10 | < 10 | – |
| [2H]C([2H])([2H])n1ccc(-c2ccc(-c3ccc(N(C)[C@@H]4C[C@H]5CCC[C@@H](C4)N5)nn3)c(O)c2)cc1=O [compound 284, 4-(4-(6-(((1R,3S,5S)-9-azabicyclo[3.3.1]nonan-3-yl)(methyl)amino)pyridazin-3-yl)-3-hydroxyphenyl)-1-(methyl-d3)pyridin-2(1H)-one] | > 1000 | < 10 | < 10 | – |
| CN(C)C(=O)c1cc2cc(O)c(-c3ccc(N(C)[C@@H]4C[C@H]5CCC[C@@H](C4)N5)nn3)cc2o1 [compound 295, 6-(6-(((1R,3S,5S)-9-azabicyclo[3.3.1]nonan-3-yl)(methyl)amino)pyridazin-3-yl)-5-hydroxy-N,N-dimethylbenzofuran-2-carboxamide] | – | – | 251 to 500 | – |
| CN(C)C(=O)c1cc2cc(-c3ccc(N(C)[C@@H]4C[C@H]5CCC[C@@H](C4)N5)nn3)c(O)cc2o1 [compound 298, 5-(6-(((1R,3S,5S)-9-azabicyclo[3.3.1]nonan-3-yl)(methyl)amino)pyridazin-3-yl)-6-hydroxy-N,N-dimethylbenzofuran-2-carboxamide] | – | – | 10 to 100 | – |
| CN(c1ccc(-c2ccc(-c3cnn(C(F)F)c3)cc2O)nn1)[C@@H]1C[C@H]2CCC[C@@H](C1)N2 [compound 301, 2-(6-(((1R,3S,5S)-9-azabicyclo[3.3.1]nonan-3-yl)(methyl)amino)pyridazin-3-yl)-5-(l-(difluoromethy)-1H-pyrazol-4-yl)phenol] | – | – | 10 to 100 | – |
